Several values for one entry are separate records, joined by “and”; a condition that tells them apart may be missing. Identical values can stand only once. ± gives the expanded uncertainty stated by the source.
Assay: xn = mol fraction of the nth substance listed
Details: for mass density: 100 kPa, Liquid, Pycnometric method

## O=C(O)/C=C\C(=O)O [cis-1,4-butenedioic acid] + O
278.3 K, Ring tensiometer, x1 = 0.012
  surface tension liquid-gas: 69.9 ± 1.2 mN/m
278.7 K, Ring tensiometer, x1 = 0.06
  surface tension liquid-gas: 64.3 ± 1.1 mN/m
279.2 K, Ring tensiometer, x1 = 0.012
  surface tension liquid-gas: 69.8 ± 1.2 mN/m
280.4 K, Ring tensiometer, x1 = 0.06
  surface tension liquid-gas: 64.4 ± 1.1 mN/m
280.5 K, Ring tensiometer, x1 = 0.06
  surface tension liquid-gas: 64.4 ± 1.1 mN/m
283.5 K, Ring tensiometer, x1 = 0.012
  surface tension liquid-gas: 69.2 ± 1.1 mN/m
283.5 K, Ring tensiometer, x1 = 0.06
  surface tension liquid-gas: 63.7 ± 1.1 mN/m
283.7 K, Ring tensiometer, x1 = 0.012
  surface tension liquid-gas: 69.4 ± 1.1 mN/m
284.2 K, Ring tensiometer, x1 = 0.06
  surface tension liquid-gas: 64 ± 1.1 mN/m
284.7 K, Ring tensiometer, x1 = 0.06
  surface tension liquid-gas: 63.9 ± 1.1 mN/m
284.9 K, Ring tensiometer, x1 = 0.06
  surface tension liquid-gas: 63.5 ± 1.1 mN/m
287.4 K, Ring tensiometer, x1 = 0.012
  surface tension liquid-gas: 68.7 ± 1.1 mN/m
287.9 K, Ring tensiometer, x1 = 0.012
  surface tension liquid-gas: 68.6 ± 1.1 mN/m
288.4 K, Ring tensiometer, x1 = 0.06
  surface tension liquid-gas: 63.4 ± 1.1 mN/m
288.6 K, Ring tensiometer, x1 = 0.06
  surface tension liquid-gas: 63.6 ± 1.1 mN/m
288.8 K, Ring tensiometer, x1 = 0.06
  surface tension liquid-gas: 63.1 ± 1 mN/m
289.1 K, Ring tensiometer, x1 = 0.06
  surface tension liquid-gas: 63.2 ± 1.1 mN/m
292.8 K, Ring tensiometer, x1 = 0.012
  surface tension liquid-gas: 68 ± 1.1 mN/m and 68.2 ± 1.1 mN/m
292.8 K, Ring tensiometer, x1 = 0.06
  surface tension liquid-gas: 62.8 ± 1 mN/m
292.9 K, Ring tensiometer, x1 = 0.06
  surface tension liquid-gas: 62.6 ± 1 mN/m
293.4 K, Ring tensiometer, x1 = 0.06
  surface tension liquid-gas: 62.9 ± 1 mN/m
296.2 K, Ring tensiometer, x1 = 0.06
  surface tension liquid-gas: 62.1 ± 1 mN/m
297 K, Ring tensiometer, x1 = 0.012
  surface tension liquid-gas: 67.5 ± 1.1 mN/m
297.1 K, Ring tensiometer, x1 = 0.06
  surface tension liquid-gas: 62.4 ± 1 mN/m
297.2 K, Ring tensiometer, x1 = 0.012
  surface tension liquid-gas: 67.7 ± 1.1 mN/m
297.5 K, Ring tensiometer, x1 = 0.012
  surface tension liquid-gas: 67.6 ± 1.1 mN/m
297.7 K, Ring tensiometer, x1 = 0.06
  surface tension liquid-gas: 62.3 ± 1 mN/m
298 K, Ring tensiometer, x1 = 0.008
  surface tension liquid-gas: 68 ± 1.1 mN/m
298 K, Ring tensiometer, x1 = 0.0116
  surface tension liquid-gas: 67.6 ± 1.1 mN/m
298 K, Ring tensiometer, x1 = 0.017
  surface tension liquid-gas: 65.9 ± 1.1 mN/m
298 K, Ring tensiometer, x1 = 0.0267
  surface tension liquid-gas: 64.1 ± 1.1 mN/m
298 K, Ring tensiometer, x1 = 0.0374
  surface tension liquid-gas: 61.4 ± 1 mN/m
298 K, Ring tensiometer, x1 = 0.0376
  surface tension liquid-gas: 61.4 ± 1 mN/m
298 K, Ring tensiometer, x1 = 0.0489
  surface tension liquid-gas: 62.2 ± 1 mN/m
298 K, Ring tensiometer, x1 = 0.0579
  surface tension liquid-gas: 61.2 ± 1 mN/m
298 K, Ring tensiometer, x1 = 0.06
  surface tension liquid-gas: 62.3 ± 1 mN/m
298 K, Ring tensiometer, x1 = 0.0627
  surface tension liquid-gas: 60.4 ± 1 mN/m
298 K, Ring tensiometer, x1 = 0.0764
  surface tension liquid-gas: 58.8 ± 1 mN/m
298 K, Ring tensiometer, x1 = 0.085
  surface tension liquid-gas: 60.3 ± 1 mN/m
298 K, Ring tensiometer, x1 = 0.0932
  surface tension liquid-gas: 59.7 ± 1 mN/m
298 K, Ring tensiometer, x1 = 0.1083
  surface tension liquid-gas: 59.5 ± 1 mN/m
298 K, x1 = 0.008
  mass density: 1016 ± 1 kg/m3
298 K, x1 = 0.017
  mass density: 1031 ± 1 kg/m3
298 K, x1 = 0.027
  mass density: 1048 ± 1 kg/m3
298 K, x1 = 0.037
  mass density: 1063 ± 1 kg/m3
298 K, x1 = 0.049
  mass density: 1084 ± 1 kg/m3
298 K, x1 = 0.062
  mass density: 1103 ± 1 kg/m3
298 K, x1 = 0.077
  mass density: 1121 ± 1 kg/m3
298 K, x1 = 0.094
  mass density: 1135 ± 1 kg/m3
300.9 K, Ring tensiometer, x1 = 0.06
  surface tension liquid-gas: 61.4 ± 1 mN/m
301.2 K, Ring tensiometer, x1 = 0.06
  surface tension liquid-gas: 61.5 ± 1 mN/m
301.6 K, Ring tensiometer, x1 = 0.06
  surface tension liquid-gas: 61.8 ± 1 mN/m
302 K, Ring tensiometer, x1 = 0.06
  surface tension liquid-gas: 61.8 ± 1 mN/m
302.3 K, Ring tensiometer, x1 = 0.012
  surface tension liquid-gas: 66.9 ± 1.1 mN/m
302.7 K, Ring tensiometer, x1 = 0.012
  surface tension liquid-gas: 66.8 ± 1.1 mN/m

## CC(=O)[C@H]1C[C@@H](CC(=O)O)C1(C)C [cis-pinonic acid] + O
280.7 K, Ring tensiometer, x1 = 0.00035
  surface tension liquid-gas: 61.7 ± 1 mN/m
282.5 K, Ring tensiometer, x1 = 0.00035
  surface tension liquid-gas: 61.6 ± 1 mN/m
283.6 K, Ring tensiometer, x1 = 0.00035
  surface tension liquid-gas: 61.6 ± 1 mN/m
283.8 K, Ring tensiometer, x1 = 0.00035
  surface tension liquid-gas: 61.4 ± 1 mN/m
284.4 K, Ring tensiometer, x1 = 0.00035
  surface tension liquid-gas: 61.3 ± 1 mN/m
285.4 K, Ring tensiometer, x1 = 0.00035
  surface tension liquid-gas: 61.5 ± 1 mN/m
287.5 K, Ring tensiometer, x1 = 0.00035
  surface tension liquid-gas: 61.1 ± 1 mN/m
288 K, Ring tensiometer, x1 = 0.00035
  surface tension liquid-gas: 60.8 ± 1 mN/m
288.8 K, Ring tensiometer, x1 = 0.00035
  surface tension liquid-gas: 60.8 ± 1 mN/m
289.1 K, Ring tensiometer, x1 = 0.00035
  surface tension liquid-gas: 60.9 ± 1 mN/m
291.9 K, Ring tensiometer, x1 = 0.00035
  surface tension liquid-gas: 60.4 ± 1 mN/m
292.5 K, Ring tensiometer, x1 = 0.00035
  surface tension liquid-gas: 60.7 ± 1 mN/m
292.9 K, Ring tensiometer, x1 = 0.00035
  surface tension liquid-gas: 60.5 ± 1 mN/m
293.9 K, Ring tensiometer, x1 = 0.00035
  surface tension liquid-gas: 60.2 ± 1 mN/m
296.8 K, Ring tensiometer, x1 = 0.00035
  surface tension liquid-gas: 60.1 ± 1 mN/m
297.1 K, Ring tensiometer, x1 = 0.00035
  surface tension liquid-gas: 60.2 ± 1 mN/m
298 K, x1 = 2e-05
  surface tension liquid-gas: 69.5 ± 2.3 mN/m
298 K, x1 = 4e-05
  surface tension liquid-gas: 66.8 ± 2.2 mN/m
298 K, x1 = 0.00011
  surface tension liquid-gas: 64.4 ± 2.1 mN/m
298 K, x1 = 0.00018
  surface tension liquid-gas: 61.4 ± 2 mN/m
  mass density: 995 ± 1 kg/m3
298 K, x1 = 0.00024
  surface tension liquid-gas: 61.2 ± 2 mN/m
298 K, x1 = 0.00034
  surface tension liquid-gas: 59 ± 2 mN/m
298 K, x1 = 0.00041
  surface tension liquid-gas: 57.2 ± 1.9 mN/m
  mass density: 997 ± 1 kg/m3
298 K, x1 = 0.0005
  surface tension liquid-gas: 56.3 ± 1.9 mN/m
  mass density: 996 ± 1 kg/m3
298 K, x1 = 0.00058
  surface tension liquid-gas: 55.8 ± 1.9 mN/m
  mass density: 994 ± 1 kg/m3
298 K, x1 = 0.00065
  surface tension liquid-gas: 56.2 ± 1.9 mN/m
298 K, x1 = 0.00083
  surface tension liquid-gas: 53.9 ± 1.8 mN/m
  mass density: 997 ± 1 kg/m3
298 K, x1 = 0.00025
  mass density: 993 ± 1 kg/m3
298 K, x1 = 0.00033
  mass density: 995 ± 1 kg/m3
298 K, x1 = 0.00066
  mass density: 994 ± 1 kg/m3
298.1 K, Ring tensiometer, x1 = 0.00035
  surface tension liquid-gas: 59.7 ± 1 mN/m
301.2 K, Ring tensiometer, x1 = 0.00035
  surface tension liquid-gas: 59.4 ± 1 mN/m
301.7 K, Ring tensiometer, x1 = 0.00035
  surface tension liquid-gas: 59.9 ± 1 mN/m
302.1 K, Ring tensiometer, x1 = 0.00035
  surface tension liquid-gas: 59.1 ± 1 mN/m

— the NIST ThermoML archive (doi:10.1021/je050366x)
